Results taken from US20220016101A1 (ACADIA Pharmaceuticals Inc., priority 2018, published 2022).
Where two headings read alike, the source gives them in different places.

Columns and labels:
serotonin transporter = serotonin transporter (Homo sapiens, UniProt P31645); test: Receptor profile: affinity (Ki) at SERT; format: binding; conditions: data on file
[1] = biological target: norepinephrine transporter (Homo sapiens, UniProt P23975); test: Receptor profile: affinity (Ki) at NET; format: binding; conditions: data on file
dopamine transporter = dopamine transporter (Homo sapiens, UniProt Q01959); test: Receptor profile: affinity (Ki) at DAT; format: binding; conditions: data on file
5-HT2A = 5-HT2A (Homo sapiens, UniProt P28223); test: Receptor profile: affinity (Ki) at 5-HT2A; format: binding; conditions: data on file
5-HT2C [2] = biological target: T1, 5-HT2C (Homo sapiens, UniProt P28335); test: Receptor profile: affinity (Ki) at 5-HT2C; format: binding; conditions: data on file
T1 sequence (P28335 33-458): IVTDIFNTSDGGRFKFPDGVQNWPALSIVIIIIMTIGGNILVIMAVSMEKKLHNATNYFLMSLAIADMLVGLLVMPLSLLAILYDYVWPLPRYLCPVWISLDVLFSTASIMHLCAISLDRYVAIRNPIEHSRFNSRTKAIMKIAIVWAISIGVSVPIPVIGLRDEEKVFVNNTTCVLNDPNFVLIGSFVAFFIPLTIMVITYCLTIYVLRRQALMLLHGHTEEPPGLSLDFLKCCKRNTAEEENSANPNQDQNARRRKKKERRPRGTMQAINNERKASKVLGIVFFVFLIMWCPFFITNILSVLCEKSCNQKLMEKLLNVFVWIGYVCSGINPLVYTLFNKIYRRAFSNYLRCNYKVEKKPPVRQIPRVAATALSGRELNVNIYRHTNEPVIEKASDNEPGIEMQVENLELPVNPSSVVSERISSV

5-HT2C [3] = biological target: T1, 5-HT2C; conditions: literature sources; read-out: affinity (Ki) 5-HT2C; cited from earlier work
5-HT3 = biological target: T2, 5-HT3 (Homo sapiens, UniProt P46098); conditions: other noteworthy target; literature sources; read-out: affinity (Ki) 5-HT3; cited from earlier work
T2 sequence (P46098 24-478): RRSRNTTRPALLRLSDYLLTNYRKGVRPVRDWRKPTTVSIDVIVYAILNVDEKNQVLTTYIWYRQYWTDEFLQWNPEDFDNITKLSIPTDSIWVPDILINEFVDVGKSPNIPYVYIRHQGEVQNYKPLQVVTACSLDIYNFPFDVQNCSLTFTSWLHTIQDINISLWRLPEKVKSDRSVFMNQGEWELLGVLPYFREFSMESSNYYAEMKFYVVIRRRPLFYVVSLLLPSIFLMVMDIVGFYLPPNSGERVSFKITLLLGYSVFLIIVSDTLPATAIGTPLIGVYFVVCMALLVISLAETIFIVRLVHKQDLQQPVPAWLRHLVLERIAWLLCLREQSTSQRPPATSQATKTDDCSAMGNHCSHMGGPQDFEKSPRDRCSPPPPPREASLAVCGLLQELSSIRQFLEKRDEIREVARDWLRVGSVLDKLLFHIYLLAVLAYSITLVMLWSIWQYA

[4] = biological target: alpha2 adrenergic receptor; conditions: read-out: affinity (Ki) α2; other noteworthy target; literature sources; cited from earlier work
D4 = biological target: T3, D4 (Homo sapiens, UniProt P21917); conditions: other noteworthy target; literature sources; read-out: affinity (Ki) D4; cited from earlier work
T3 sequence (P21917 1-419): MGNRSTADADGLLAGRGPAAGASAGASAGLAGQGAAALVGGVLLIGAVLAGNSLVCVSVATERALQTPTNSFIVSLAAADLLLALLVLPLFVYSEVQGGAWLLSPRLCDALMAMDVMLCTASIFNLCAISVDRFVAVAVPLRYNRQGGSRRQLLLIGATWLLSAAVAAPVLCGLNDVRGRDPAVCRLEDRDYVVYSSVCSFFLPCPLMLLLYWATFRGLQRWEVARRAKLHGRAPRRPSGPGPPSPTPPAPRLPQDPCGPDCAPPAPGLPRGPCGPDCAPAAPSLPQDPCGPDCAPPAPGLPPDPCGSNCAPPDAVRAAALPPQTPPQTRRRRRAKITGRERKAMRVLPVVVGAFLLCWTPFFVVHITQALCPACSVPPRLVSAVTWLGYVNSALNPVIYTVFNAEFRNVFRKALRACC

patients with MDD = conditions: Baldwin et al (2013); printed as x to 1; cited from earlier work
[5] = biological target: alpha1 adrenergic receptor; test: Receptor profile: affinity (Ki) at α1; format: binding; conditions: other noteworthy target; data on file

Chain of serotonin transporter (P31645 whole entry): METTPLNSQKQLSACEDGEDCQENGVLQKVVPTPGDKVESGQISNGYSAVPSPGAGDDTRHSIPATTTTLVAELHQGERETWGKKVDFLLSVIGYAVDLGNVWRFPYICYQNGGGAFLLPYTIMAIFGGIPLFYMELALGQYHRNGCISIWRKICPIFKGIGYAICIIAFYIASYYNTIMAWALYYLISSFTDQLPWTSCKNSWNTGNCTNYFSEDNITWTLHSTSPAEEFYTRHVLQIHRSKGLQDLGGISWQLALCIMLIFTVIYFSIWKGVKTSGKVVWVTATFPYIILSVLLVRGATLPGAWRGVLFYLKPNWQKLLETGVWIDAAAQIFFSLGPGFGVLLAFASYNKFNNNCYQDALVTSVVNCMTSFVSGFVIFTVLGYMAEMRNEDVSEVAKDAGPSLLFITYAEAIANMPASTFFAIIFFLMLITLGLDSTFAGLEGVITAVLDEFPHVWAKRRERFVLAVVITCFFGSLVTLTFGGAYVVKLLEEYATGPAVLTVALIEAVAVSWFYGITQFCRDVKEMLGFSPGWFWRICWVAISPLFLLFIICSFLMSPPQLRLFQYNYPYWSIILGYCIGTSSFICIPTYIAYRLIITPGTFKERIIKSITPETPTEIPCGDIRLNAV
Chain of norepinephrine transporter (P23975 whole entry, species assumed): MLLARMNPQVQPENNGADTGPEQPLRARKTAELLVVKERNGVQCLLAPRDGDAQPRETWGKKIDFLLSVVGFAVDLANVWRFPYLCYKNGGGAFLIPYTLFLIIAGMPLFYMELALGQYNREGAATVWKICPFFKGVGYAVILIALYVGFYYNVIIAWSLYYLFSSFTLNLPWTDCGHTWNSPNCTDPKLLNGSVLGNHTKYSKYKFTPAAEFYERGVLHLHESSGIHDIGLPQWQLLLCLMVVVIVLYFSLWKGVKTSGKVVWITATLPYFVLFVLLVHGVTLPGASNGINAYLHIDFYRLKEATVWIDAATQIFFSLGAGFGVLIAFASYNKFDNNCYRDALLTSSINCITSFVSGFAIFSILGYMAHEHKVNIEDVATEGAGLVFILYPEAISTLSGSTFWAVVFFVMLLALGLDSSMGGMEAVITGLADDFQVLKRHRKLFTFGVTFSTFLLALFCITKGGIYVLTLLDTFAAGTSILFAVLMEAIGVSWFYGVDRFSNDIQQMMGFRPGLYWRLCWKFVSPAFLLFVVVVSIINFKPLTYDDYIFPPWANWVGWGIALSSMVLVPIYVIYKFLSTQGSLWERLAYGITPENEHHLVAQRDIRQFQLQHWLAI
Chain of dopamine transporter (Q01959 whole entry): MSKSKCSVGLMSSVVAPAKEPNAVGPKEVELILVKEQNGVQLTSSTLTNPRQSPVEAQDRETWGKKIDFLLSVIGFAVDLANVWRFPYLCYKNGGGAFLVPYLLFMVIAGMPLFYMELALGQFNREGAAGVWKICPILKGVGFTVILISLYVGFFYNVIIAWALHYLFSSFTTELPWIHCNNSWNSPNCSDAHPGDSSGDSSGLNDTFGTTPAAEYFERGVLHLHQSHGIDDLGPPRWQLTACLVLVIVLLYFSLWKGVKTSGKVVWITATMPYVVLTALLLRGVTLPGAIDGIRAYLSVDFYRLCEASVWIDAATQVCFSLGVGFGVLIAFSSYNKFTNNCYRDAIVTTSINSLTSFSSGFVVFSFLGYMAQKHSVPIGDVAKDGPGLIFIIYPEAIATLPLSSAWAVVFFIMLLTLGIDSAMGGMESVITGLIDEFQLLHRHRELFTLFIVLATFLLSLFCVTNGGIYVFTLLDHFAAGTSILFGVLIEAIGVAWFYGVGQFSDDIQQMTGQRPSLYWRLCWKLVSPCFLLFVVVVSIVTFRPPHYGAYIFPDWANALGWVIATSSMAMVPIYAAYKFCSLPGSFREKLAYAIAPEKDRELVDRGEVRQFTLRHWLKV
Chain of 5-HT2A (P28223 whole entry, species assumed): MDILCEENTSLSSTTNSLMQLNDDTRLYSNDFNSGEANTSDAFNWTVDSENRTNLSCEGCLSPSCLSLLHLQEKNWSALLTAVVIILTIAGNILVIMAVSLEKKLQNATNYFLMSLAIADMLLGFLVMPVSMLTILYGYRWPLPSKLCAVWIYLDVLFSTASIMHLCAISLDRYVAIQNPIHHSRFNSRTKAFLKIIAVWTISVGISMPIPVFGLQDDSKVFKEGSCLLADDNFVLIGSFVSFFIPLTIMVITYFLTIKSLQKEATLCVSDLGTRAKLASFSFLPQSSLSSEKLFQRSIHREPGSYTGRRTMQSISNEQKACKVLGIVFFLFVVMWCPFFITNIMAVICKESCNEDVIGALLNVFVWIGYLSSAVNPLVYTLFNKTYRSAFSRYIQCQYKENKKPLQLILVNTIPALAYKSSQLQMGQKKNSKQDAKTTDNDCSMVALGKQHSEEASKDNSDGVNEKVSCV

| Compound | Ki (serotonin transporter) [nM] | Ki [1] [nM] | Ki (dopamine transporter) [nM] | Ki (5-HT2C [2]) [nM] | Ki (5-HT2C [3]) [nM] | Ki [4] [nM] | also measured |
| --- | --- | --- | --- | --- | --- | --- | --- |
| N#Cc1c[nH]c2c(C(=O)N3CCN(CCc4ccc(F)cc4)CC3)cccc12 [PRUV, pruvanserin] | > 1000 | > 1000 | > 1000 | > 1000 |  |  | Ki (5-HT2A): 0.7 nM |
| Cc1nc2sccn2c(=O)c1CCN1CCC(=C(c2ccc(F)cc2)c2ccc(F)cc2)CC1 [RIT, ritanserin] | > 1000 | > 1000 | > 1000 | 3 |  |  |  |
| CN1CCN2c3ncccc3Cc3ccccc3C2C1 (centres unmarked) [MIRT, mirtazapine] |  |  |  |  | 40 | 15 to 20 | Ki (5-HT3): 10 nM |
| NC(=O)C1(N2CCCCC2)CCN(CCCC(=O)c2ccc(F)cc2)CC1 [PIP, pipamperone] |  |  |  |  | 120 | 35 | Ki (D4): 5 nM |
| COc1ccc(C(CN(C)C)C2(O)CCCCC2)cc1 (centres unmarked) [venlafaxine] |  |  |  |  |  |  | odds ratio (drug to placebo) for sexual dysfunction (patients with MDD): 24.42 |
| O=C(c1ccc(F)cc1)C1CCN(CCn2c(=O)[nH]c3ccccc3c2=O)CC1 [KET, ketanserin] |  |  |  |  |  |  | Ki [5]: 15 to 20 nM |
